Source: ChEMBL document CHEMBL1201862, “PubChem BioAssay data set” (2004)
Activity calls are given as the source filed them.

Tests used:
A-375 [1] = experiment: MITF: Counter assay: A375 proliferation Measured in Cell-Based System Using Plate Reader - 2084-03_Inhibitor_Dose_DryPowder_Activity. [Related pubchem assays (depositor defined):AID488944]; assay type: functional; details: Homo sapiens
A-375 [2] = experiment: A375 melanoma cell viability reduction, dose response, counter-screen for MITF modulator project, cherry-pick samples, set 2 (AID 540335); assay type: functional, cell-based; details: Homo sapiens
Vero [3] = experiment: cells; assay type: functional; details: Chlorocebus sabaeus
[4] = cytotoxicity in HMLE control line with eGFP shRNA, dose response, counter-screen for HMLE_sh_ECad selective toxicity project, cell-based, HMLE_sh_eGFP, luminescence (AID 463074); assay type: functional, Homo sapiens;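 note: HMLE human mammary epithelial cells expressing control shRNA against eGFP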
Vero [5] = experiment: cells; assay type: functional, cell-based; details: Chlorocebus sabaeus
[6] = molecular target: Microphthalmia-associated transcription factor (Homo sapiens, UniProt O75030); experiment: TRPM1 promoter luciferase signal decrease, dose response, MITF inhibitor project, cell-based, SK-MEL-5, cherry-picked, set 3 (AID 493073); assay type: functional
[7] = Luminescence Cell-Based Dose Retest to Confirm Inhibitors of Cancer Stem Cells. [Related pubchem assays (depositor defined):AID2717, AID2721]; assay type: functional; details: Homo sapiens
Vero [8] = experiment: host cell cytotoxicity of antiviral hits, dose response, cytotoxicity control for West Nile virus antiviral project, secondary assay (AID 1650); assay type: functional; details: Chlorocebus sabaeus
INS1 = experiment: beta cell apoptosis inhibitors, cytokine rescue, dose response, luminescence, retest (AID 449756); assay type: functional, cell-based; details: Rattus norvegicus;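 note: cell death triggered by IL-1 beta plus TNF-alpha plus IFN-gamma mixture; protective hits raise ATP signal compared with cytokine alone wells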
[9] = cytotoxicity in HEK-293T cells, dose response, cytotoxicity control for BCR NF-kB inhibitor project, luminescence, B-cell screen hits (AID 489021); assay type: functional, cell-based;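 note: HEK-293T cells carrying an NF-kB luciferase reporter; cells exposed to compound for about 14 hours before viability readout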
HEK293 [10] = experiment: cells; details: Homo sapiens
[11] = molecular target: Nucleotide-binding oligomerization domain-containing protein 1 (Homo sapiens, UniProt Q9Y239); experiment: NOD1 signaling inhibitors, SAR follow-up, revised (AID 2333); assay type: functional
[12] = control 3'UTR Renilla luciferase suppression, dose response, counter-screen for Shn3 inhibitor project, cell-based, Clone20-Shn3RL, cherry-picked (AID 624133); assay type: functional
HEK293 [13] = experiment: NOD1 signaling inhibitors, primary screen, cell-based, luminescence, uHTS (AID 1578); assay type: functional; details: Homo sapiens
[14] = molecular target: Nucleotide-binding oligomerization domain-containing protein 2 (Homo sapiens, UniProt Q9HC29); experiment: NOD2 signaling inhibitors, cell-based, luminescence, uHTS, HEK293 (AID 1566); assay type: functional
Paired box protein Pax-8 = Paired box protein Pax-8 (Homo sapiens, UniProt Q06710); experiment: inhibitors of PAX8-driven TPO luciferase reporter, dose response, RMG-I cells, cherry-pick (AID 687027); assay type: functional, cell-based;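 note: luciferase reporter driven by Pax8 target thyroperoxidase promoter measured by SteadyGlo luminescence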
[15] = HepG2 cell cytotoxicity, dose response, cytotoxicity control for Shn3 inhibitor project, CellTiter-Glo, cherry-picked (AID 624134); assay type: functional, cell-based
HEK293 [16] = experiment: cells; assay type: functional, cell-based; details: Homo sapiens
HEK293 [17] = experiment: cells; assay type: functional, cell-based; details: Homo sapiens; remark: listed apart in the source
[18] = Shn3 3'UTR reporter inhibitors, dose response, cell-based, Clone20 osteoblasts, firefly luciferase, cherry-picked (AID 624132); assay type: functional;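 note: firefly luciferase luminescence from reporter carrying the Shn3 3'UTR in osteoblasts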
HEK293 [19] = experiment: NOD2 signaling inhibitors in MDP-stimulated cells, cell-based, uHTS, luminescence (AID 2001); assay type: functional; details: Homo sapiens
HEK293 [20] = experiment: cells; assay type: functional, cell-based; details: Homo sapiens; remark: listed apart in the source
Tumor necrosis factor = Tumor necrosis factor (Homo sapiens, UniProt P01375); experiment: TNFa-triggered NF-kB activation inhibitors, SAR follow-up, cell-based, revised (AID 2337); assay type: functional
Keap1/Nrf2 = Keap1/Nrf2 (Homo sapiens, UniProt Q14145); experiment: Keap1-Nrf2 protein-protein interaction inhibitors, dose response, biochemical, fluorescence polarization, cherry-picked samples (AID 588683)
[21] = molecular target: Induced myeloid leukemia cell differentiation protein Mcl-1 (Homo sapiens, UniProt Q07820); assay type: functional
Genome polyprotein = Genome polyprotein (dengue virus type 2, UniProt P29990); experiment: Dengue-2 NS5 methyltransferase inhibitors, primary screen, biochemical, confirmation dose response (AID 588689); assay type: functional
Aminopeptidase N = molecular target: T1, Aminopeptidase N (Plasmodium falciparum FcB1/Columbia, UniProt O96935); experiment: P. falciparum M1AAP inhibitors, biochemical, fluorogenic H-Leu-NHMec substrate, 1536-well (AID 1445); set-up: species or system Plasmodium falciparum 3D7, 3D7
T1 sequence (O96935 whole entry): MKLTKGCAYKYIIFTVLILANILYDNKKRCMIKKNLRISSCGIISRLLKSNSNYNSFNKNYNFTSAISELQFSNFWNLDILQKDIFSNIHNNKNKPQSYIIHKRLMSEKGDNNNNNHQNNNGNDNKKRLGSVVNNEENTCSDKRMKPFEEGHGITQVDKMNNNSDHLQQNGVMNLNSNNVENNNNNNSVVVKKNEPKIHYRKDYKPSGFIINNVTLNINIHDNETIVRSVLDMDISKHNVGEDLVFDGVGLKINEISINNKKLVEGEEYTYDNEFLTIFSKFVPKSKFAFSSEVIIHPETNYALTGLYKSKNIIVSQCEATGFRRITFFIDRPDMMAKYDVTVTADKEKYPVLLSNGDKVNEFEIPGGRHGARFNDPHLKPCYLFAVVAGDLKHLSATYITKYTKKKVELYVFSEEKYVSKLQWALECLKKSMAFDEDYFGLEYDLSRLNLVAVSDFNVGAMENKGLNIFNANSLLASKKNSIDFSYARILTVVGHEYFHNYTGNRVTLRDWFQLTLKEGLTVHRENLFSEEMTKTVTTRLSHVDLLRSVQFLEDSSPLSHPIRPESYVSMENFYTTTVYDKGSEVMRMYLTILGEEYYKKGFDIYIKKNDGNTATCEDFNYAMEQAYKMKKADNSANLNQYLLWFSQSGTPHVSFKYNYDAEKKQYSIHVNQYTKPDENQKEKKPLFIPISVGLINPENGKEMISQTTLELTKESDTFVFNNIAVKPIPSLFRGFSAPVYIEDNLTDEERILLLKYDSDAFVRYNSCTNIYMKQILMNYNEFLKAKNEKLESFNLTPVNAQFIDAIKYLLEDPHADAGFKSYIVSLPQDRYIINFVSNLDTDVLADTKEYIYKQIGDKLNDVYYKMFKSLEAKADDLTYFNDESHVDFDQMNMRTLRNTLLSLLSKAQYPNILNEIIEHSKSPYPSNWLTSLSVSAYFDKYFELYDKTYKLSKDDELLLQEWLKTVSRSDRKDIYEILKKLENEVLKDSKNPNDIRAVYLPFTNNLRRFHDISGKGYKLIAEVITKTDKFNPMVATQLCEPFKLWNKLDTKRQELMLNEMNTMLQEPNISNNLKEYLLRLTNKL

[22] = inhibitors of intracellular T. cruzi replication, confirmation, NIH3T3 host cells, beta-gal luminescence (AID 2044); assay type: functional, cell-based;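 note: intracellular parasites grown in NIH/3T3 mouse fibroblasts as host cells; luminescent beta-galactosidase reporter signal from transgenic T. cruzi replicating inside host cells; inhibitors lower the luminescence signal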
[23] = cytotoxicity toward NIH3T3 fibroblasts, dose response, counter-screen, cell-based, ATP luminescence, mouse fibroblasts (AID 2010); assay type: functional;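 note: cells exposed to compound for about 90 hours before reading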
CAAX prenyl protease 2 = CAAX prenyl protease 2 (Homo sapiens, UniProt Q9Y256); experiment: human Rce1 protease inhibitors, dose response, biochemical, yeast membranes, quenched-peptide fluorescence, cherry-pick (AID 588849)
Trypsin = Trypsin (Sus scrofa, UniProt P00761); experiment: porcine trypsin inhibitors, dose response, selectivity assay for Rce1 protease inhibitor project, biochemical, quenched peptide fluorescence, cherry-pick (AID 488789)
Escherichia coli = experiment: microbe, parasite or virus in culture
Phosphomannomutase 2 = Phosphomannomutase 2 (Homo sapiens, UniProt O15305); experiment: Counter screen SAR assay for PMM2 inhibitors via a fluorescence intensity assay. [Related pubchem assays (depositor defined):AID1545, AID1574]
[24] = molecular target: T2, Mannose-6-phosphate isomerase (Homo sapiens, UniProt P34949); experiment: inhibitors of human PMI, primary screen, biochemical, fluorescence intensity, coupled assay (AID 1209)
T2 sequence (P34949 whole entry): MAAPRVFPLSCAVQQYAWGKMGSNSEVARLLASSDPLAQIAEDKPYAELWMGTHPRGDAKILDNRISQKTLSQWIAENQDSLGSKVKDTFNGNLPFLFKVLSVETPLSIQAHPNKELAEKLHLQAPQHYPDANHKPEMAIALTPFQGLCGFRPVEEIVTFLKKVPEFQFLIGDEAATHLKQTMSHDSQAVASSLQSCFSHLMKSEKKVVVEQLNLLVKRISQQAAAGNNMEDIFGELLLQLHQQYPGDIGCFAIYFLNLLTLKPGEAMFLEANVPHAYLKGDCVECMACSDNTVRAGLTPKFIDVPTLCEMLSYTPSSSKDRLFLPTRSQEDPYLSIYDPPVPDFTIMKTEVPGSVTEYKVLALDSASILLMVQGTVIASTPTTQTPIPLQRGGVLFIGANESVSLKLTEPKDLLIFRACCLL

[25] = molecular target: DNA dC->dU-editing enzyme APOBEC-3A (Homo sapiens, UniProt P31941); experiment: APOBEC3A DNA deaminase inhibitors, dose response, biochemical (AID 504722); assay type: functional
[26] = molecular target: DNA dC->dU-editing enzyme APOBEC-3G (Homo sapiens, UniProt Q9HC16); experiment: Dose Response confirmation of small molecule APOBEC3G DNA Deaminase Inhibitors via a fluorescence-based single-stranded DNA deaminase assay. [Related pubchem assays (depositor defined):AID493012, AID493028]; assay type: functional
[27] = molecular target: T2, Mannose-6-phosphate isomerase; experiment: PMI enzyme inhibitors, confirmation, biochemical, fluorescence intensity (AID 1535)

Chain of Trypsin (P00761 whole entry): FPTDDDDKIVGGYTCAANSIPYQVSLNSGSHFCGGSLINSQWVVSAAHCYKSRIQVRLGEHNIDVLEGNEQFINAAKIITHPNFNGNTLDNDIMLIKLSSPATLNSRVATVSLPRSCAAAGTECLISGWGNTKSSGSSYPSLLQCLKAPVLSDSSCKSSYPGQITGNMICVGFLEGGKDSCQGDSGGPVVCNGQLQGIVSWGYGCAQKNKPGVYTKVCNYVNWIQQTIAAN
Chain of Genome polyprotein (P29990 2492-3391 limits assumed): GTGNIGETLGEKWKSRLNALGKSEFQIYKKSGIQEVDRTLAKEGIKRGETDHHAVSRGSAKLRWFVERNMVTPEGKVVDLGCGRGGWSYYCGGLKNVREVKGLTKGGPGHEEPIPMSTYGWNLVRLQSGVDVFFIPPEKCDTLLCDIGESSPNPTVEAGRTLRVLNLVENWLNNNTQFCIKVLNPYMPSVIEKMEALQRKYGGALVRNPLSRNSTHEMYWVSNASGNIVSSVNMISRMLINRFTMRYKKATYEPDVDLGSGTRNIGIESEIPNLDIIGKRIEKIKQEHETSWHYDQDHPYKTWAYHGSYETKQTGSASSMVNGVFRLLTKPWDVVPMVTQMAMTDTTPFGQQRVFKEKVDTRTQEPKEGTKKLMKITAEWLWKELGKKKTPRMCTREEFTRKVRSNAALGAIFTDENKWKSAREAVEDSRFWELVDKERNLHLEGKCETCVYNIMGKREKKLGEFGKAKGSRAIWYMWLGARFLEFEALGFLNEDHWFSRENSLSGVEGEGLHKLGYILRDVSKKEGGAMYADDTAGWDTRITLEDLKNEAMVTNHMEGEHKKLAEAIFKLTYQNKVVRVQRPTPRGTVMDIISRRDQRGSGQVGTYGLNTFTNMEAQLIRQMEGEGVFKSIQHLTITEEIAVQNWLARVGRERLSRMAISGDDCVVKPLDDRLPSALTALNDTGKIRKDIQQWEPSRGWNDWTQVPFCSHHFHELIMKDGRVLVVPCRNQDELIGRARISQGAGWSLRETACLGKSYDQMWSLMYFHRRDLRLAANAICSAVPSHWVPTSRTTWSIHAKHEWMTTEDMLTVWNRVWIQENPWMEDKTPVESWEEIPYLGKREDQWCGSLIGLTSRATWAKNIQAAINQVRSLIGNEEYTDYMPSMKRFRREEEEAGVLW
Chain of Nucleotide-binding oligomerization domain-containing protein 2 (Q9HC29 whole entry, the tested form may be a part): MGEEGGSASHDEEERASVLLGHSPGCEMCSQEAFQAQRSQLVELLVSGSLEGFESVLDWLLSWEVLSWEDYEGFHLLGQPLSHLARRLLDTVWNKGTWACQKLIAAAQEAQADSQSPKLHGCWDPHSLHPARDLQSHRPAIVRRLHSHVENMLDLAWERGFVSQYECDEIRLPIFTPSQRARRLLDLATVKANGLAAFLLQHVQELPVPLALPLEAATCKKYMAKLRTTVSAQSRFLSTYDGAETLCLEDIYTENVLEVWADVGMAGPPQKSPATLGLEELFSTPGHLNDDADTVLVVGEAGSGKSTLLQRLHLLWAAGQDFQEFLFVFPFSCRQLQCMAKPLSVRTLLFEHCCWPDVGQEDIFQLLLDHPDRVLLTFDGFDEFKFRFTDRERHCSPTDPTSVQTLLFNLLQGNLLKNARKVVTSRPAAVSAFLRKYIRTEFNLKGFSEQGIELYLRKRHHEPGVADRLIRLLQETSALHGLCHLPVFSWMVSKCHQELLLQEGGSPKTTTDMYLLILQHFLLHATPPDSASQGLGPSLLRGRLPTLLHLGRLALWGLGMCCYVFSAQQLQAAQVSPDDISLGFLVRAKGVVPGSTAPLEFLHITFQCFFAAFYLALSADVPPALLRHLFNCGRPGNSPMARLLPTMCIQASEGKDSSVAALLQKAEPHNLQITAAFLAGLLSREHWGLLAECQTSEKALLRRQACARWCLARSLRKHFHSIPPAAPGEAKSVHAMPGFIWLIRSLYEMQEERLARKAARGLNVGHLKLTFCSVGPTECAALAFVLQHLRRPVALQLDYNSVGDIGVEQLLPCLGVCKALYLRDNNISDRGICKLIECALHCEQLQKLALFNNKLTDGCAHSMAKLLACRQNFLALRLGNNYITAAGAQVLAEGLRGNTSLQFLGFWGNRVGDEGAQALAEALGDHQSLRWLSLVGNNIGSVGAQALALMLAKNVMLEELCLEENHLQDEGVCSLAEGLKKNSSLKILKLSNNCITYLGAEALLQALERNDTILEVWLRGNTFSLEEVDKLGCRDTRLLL
Chain of Microphthalmia-associated transcription factor (O75030 whole entry): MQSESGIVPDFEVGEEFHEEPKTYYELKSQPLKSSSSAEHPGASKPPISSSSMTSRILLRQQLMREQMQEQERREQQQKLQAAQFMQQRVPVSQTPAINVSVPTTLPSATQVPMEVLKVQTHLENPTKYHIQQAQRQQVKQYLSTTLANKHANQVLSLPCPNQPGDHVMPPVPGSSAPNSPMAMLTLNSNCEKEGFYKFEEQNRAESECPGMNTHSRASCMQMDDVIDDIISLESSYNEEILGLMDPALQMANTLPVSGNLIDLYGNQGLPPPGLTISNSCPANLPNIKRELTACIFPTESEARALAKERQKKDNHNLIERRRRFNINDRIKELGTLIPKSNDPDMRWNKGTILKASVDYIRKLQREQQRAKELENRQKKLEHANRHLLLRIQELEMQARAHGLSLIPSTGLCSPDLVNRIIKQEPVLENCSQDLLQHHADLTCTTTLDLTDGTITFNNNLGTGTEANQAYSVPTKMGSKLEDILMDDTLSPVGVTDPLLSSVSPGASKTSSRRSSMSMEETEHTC
Chain of Phosphomannomutase 2 (O15305 whole entry): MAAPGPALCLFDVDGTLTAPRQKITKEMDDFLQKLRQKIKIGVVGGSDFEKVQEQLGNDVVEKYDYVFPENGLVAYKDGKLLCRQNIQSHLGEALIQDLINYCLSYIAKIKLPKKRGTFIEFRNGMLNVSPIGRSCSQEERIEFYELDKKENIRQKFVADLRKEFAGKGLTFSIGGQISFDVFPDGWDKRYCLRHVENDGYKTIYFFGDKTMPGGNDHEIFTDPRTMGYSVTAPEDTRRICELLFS
Chain of Tumor necrosis factor (P01375 whole entry): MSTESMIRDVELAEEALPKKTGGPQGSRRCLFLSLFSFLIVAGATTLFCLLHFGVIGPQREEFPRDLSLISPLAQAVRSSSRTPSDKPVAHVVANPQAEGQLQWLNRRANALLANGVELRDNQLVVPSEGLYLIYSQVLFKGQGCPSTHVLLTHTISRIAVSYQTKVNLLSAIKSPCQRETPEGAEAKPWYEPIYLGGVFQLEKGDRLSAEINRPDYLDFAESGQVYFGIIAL
Chain of Induced myeloid leukemia cell differentiation protein Mcl-1 (Q07820 whole entry): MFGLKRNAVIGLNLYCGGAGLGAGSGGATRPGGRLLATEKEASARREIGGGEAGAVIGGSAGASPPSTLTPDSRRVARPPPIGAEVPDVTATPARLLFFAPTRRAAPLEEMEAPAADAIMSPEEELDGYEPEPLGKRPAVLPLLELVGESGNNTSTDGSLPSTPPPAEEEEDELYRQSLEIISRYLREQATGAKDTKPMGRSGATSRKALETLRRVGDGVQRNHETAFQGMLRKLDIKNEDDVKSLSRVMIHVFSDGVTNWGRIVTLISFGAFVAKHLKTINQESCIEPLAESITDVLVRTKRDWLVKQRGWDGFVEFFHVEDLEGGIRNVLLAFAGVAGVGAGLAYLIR
Chain of DNA dC->dU-editing enzyme APOBEC-3A (P31941 whole entry): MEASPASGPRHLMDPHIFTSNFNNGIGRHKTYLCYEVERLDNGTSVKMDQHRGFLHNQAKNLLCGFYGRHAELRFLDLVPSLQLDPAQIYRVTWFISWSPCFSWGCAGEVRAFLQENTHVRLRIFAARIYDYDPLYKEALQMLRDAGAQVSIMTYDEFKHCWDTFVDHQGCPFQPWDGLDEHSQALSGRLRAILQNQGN
Chain of CAAX prenyl protease 2 (Q9Y256 whole entry): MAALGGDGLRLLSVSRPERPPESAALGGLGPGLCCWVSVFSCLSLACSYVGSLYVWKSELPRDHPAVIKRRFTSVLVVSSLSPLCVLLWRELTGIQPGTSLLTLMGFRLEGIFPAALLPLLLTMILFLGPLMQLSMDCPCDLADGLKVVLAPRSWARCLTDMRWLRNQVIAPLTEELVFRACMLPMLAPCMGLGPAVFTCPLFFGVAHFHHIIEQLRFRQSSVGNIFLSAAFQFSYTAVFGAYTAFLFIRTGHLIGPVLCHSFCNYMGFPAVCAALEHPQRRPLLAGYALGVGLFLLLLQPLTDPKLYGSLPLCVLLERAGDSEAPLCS
Chain of DNA dC->dU-editing enzyme APOBEC-3G (Q9HC16 whole entry): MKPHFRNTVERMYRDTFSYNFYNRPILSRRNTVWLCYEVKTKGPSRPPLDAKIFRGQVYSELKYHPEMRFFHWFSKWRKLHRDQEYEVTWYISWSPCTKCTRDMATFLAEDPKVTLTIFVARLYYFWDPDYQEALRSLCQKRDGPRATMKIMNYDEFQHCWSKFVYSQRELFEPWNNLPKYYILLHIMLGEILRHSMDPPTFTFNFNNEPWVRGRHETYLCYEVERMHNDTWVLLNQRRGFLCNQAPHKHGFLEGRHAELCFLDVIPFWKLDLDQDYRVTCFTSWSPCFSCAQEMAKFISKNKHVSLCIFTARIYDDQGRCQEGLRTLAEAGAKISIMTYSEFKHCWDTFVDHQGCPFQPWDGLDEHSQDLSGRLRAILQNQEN
Chain of Paired box protein Pax-8 (Q06710 whole entry): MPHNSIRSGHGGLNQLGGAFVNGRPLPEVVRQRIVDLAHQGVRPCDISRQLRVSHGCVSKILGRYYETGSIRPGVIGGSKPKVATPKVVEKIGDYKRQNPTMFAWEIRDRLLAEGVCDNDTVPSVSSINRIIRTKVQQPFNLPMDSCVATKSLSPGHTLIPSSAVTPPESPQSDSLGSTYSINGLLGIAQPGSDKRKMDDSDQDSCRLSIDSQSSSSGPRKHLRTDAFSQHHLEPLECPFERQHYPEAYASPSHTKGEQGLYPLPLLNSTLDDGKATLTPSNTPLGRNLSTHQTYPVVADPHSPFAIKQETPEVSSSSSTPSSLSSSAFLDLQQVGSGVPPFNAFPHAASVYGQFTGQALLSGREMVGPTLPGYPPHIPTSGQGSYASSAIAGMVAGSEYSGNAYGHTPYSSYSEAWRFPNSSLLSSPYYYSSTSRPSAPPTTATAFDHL

CCN1CCN(CCCNC(=O)c2ccc3c(Cl)c4c(nc3c2)CCCC4)CC1
AC50 (A-375 [1]): > 11 µM (active)
AC50 (A-375 [2]): > 11 µM (active)
CC50 (Vero [3]): 18.7 µM (active)

Cc1nc2ccccn2c1C(=O)/C=C/c1cccc([N+](=O)[O-])c1
AC50 (A-375 [1]): > 35 µM (active)
AC50 [4]: 56.9 µM (active)
IC50 (Vero [5]): 17.2 µM (active)
AC50 [6]: 6.9 µM (active)
AC50 [7]: 26.6 µM (active)
CC50 (Vero [8]): 5.91 µM (active)
AC50 (INS1): 8.14 µM (active)
IC50 [9]: > 80 µM (inactive)
AC50 (A-375 [2]): > 35 µM (active)
CC50 (Vero [3]): 24 µM (active)

Cc1ccc(S(=O)(=O)NCc2ccc(C(=O)N3CCN(c4ccc([N+](=O)[O-])cc4)CC3)cc2)cc1
IC50 (HEK293 [10]): > 20 µM (inactive)
IC50 [11]: 9.8 µM (active)
AC50 [12]: 11.7 µM (active)
EC50 (HEK293 [13]): 4.26 µM (active)
EC50 [14]: 6.65 µM (active)
AC50 (Paired box protein Pax-8): 6.91 µM (active)
AC50 [15]: 39.8 µM (active)
IC50 (HEK293 [16]): 4.67 µM (active)
IC50 (HEK293 [17]): > 20 µM (inactive)
AC50 [18]: 3.79 µM (active)
IC50 (HEK293 [19]): 7.59 µM (active)
IC50 (HEK293 [20]): 16.2 µM (active)
IC50 (Tumor necrosis factor): 11.4 µM (active)

O=C1Nc2ccc(Br)cc2/C1=C1/SC(=S)N(NS(=O)(=O)c2ccccc2)C1=O
AC50 (Keap1/Nrf2): 12.2 µM (active)
IC50 [21]: 3 µM (not active)
IC50 (Genome polyprotein): 23.6 µM (active)
IC50 (Aminopeptidase N): < 1 µM (active)

COc1ccc(/C=C/c2nc3ccccc3n2Cc2ccccc2OC)cc1
EC50 [22]: 0.663 µM (active)
EC50 [23]: > 60 µM (inconclusive)
AC50 (CAAX prenyl protease 2): 3.33 µM (active)
AC50 (Trypsin): 3.43 µM (active)

COC(=O)Nc1ccc2c(c1)N(C(=O)CCN1CCOCC1)c1ccccc1S2
AC50 (Escherichia coli): 50.2 µM (active)

CCOC(=O)C1=C(C)c2ccccc2OC1(C(=O)OCC)C(C)C (stereo unspecified)
AC50 (Escherichia coli): 379 µM (active)

Cc1ccc(C)n1-c1n[nH]c(=S)[nH]1
IC50 (Phosphomannomutase 2): > 100 µM (inactive)
IC50 [24]: 13.7 µM (active)
IC50 [25]: > 100 µM (inactive)
IC50 [26]: 6.12 µM (active)
IC50 [27]: 41.8 µM (active)
